Experimental findings from patent US20230203043A1, “NOVEL IMIDAZOPYRAZINE DERIVATIVES” (Hoffmann-La Roche Inc., priority 2020, published 2023) are described below.

What is called IC90 is the concentration needed for an effect of 90%.

This assay relates to Acinetobacter baumannii ATCC17961. Description: Antimicrobial susceptibility testing: 90% growth inhibitory concentration (IC90) determination in Iso-Sensitest broth, OD600 growth. It counts as cell-based. The gist of the method: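 OD600 read every 20 min for 16 h at 35±2° C; inhibition taken in log phase to derive IC90. Twofold, 10-point dilutions (e.g. 50–0.097 μM final), inoculum ~5×10^(5) CFU/ml.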

Setting [1] is: Acinetobacter baumannii, ATCC17961, 16 h, strain ATCC 17961, OD600 growth over 16 h, read-out: A. baumannii ATCC 17961 IC90.
Setting [2] is: Acinetobacter baumannii, ATCC17961, 16 h, read-out: A. baumannii ATCC 17961 IC90 (uM), strain ATCC 17961, OD600 growth over 16 h.

Structures can show the parent of a compound that is named as a salt. Where two headings read alike, the source gives them in different places.

With `CCc1cc(Nc2nccn3c(-c4cn(CCNC)nc4C(F)(F)F)cnc23)ccc1C(=O)NC` [Example 298, 2-ethyl-N-methyl-4-[[3-[1-[2-(methylamino)ethyl]-3-(trifluoromethyl)pyrazol-4-yl]imidazo[1,2-a]pyrazin-8-yl]amino]benzamide], the 90% effect concentration (IC90) under setting [1] is 1.32 µM. On the same count and under the same terms, then `NCCOCCNC(=O)c1ccc(Nc2nccn3c(-c4cn(CCF)nc4C(F)(F)F)cnc23)cc1Cl` [Example 250, N-[2-(2-aminoethoxy)ethyl]-2-chloro-4-[[3-[1-(2-fluoroethyl)-3-(trifluoromethyl)pyrazol-4-yl]imidazo[1,2-a]pyrazin-8-yl]amino]benzamide], with 0.084 µM.

`N#CCn1cc(-c2cnc3c(Nc4ccc(C(=O)N5CCN(C(=O)N6CC[C@@H](N)C6)CC5)c(Cl)c4)nccn23)c(C(F)(F)F)n1` [Example 179, 2-[4-[8-4-[4-[(3R)-3-aminopyrrolidine-1-carbonyl]piperazine-1-carbonyl]-3-chloroanilino]imidazo[1,2-a]pyrazin-3-yl]-3-(trifluoromethyl) pyrazol-1-yl]acetonitrile formate]: the IC90 (strain ATCC 17961, OD600 growth over 16 h, read-out: A. baumannii ATCC 17961 IC90) was determined as 0.181 µM. `Cc1cc(Nc2nccn3c(-c4cn(C)nc4C(F)(F)F)cnc23)ccc1C(=O)N1CCN(C(=O)[C@H]2CCNC[C@@H]2O)CC1` [Example 478, formic acid; [4-[(3R,4S)-3-hydroxypiperidine-4-carbonyl]piperazin-1-yl]-[2-methyl-4-[[3-[1-methyl-3-(trifluoromethyl)pyrazol-4-yl]imidazo[1,2-a]pyrazin-8-yl]amino]phenyl]methanone]: the 90% effect concentration (IC90) under setting [2] was 3.46 µM.

`NCCNC(=O)CNC(=O)c1ccc(Nc2nccn3c(-c4c[nH]nc4C(F)(F)F)cnc23)cc1Cl` [Example 166, N-[2-(2-aminoethylamino)-2-oxoethyl]-2-chloro-4-[[3-[3-(trifluoromethyl)-1H-pyrazol-4-yl]imidazo[1,2-a]pyrazin-8-yl]amino]benzamide]: the 90% effect concentration (IC90) under setting [1] came to 4.48 µM. Consider `COCCn1cc(-c2cnc3c(Nc4ccc(C(=O)N5CCN(C(=O)N[C@@H]6CCNC6)CC5)c(Cl)c4)nccn23)c(C(F)(F)F)n1` [Example 296, 4-[2-chloro-4-[[3-[1-(2-methoxyethyl)-3-(trifluoromethyl)pyrazol-4-yl]imidazo[1,2-a]pyrazin-8-yl]amino]benzoyl]-N-[(3R)-pyrrolidin-3-yl]piperazine-1-carboxamide formate], for which the IC90 under setting [2] was 0.491 µM. As for `Cc1cc(Nc2nccn3c(-c4cn(CC(F)F)nc4C(F)(F)F)cnc23)ccc1C(=O)NCCOCCN` [Example 254, N-[2-(2-aminoethoxy)ethyl]-4-[[3-[1-(2,2-difluoroethyl)-3-(trifluoromethyl)pyrazol-4-yl]imidazo[1,2-a]pyrazin-8-yl]amino]-2-methylbenzamide], under setting [1], the concentration for an effect of 90% (IC90) was determined as 0.222 µM. Same read-out and setting: to `N#CCn1cc(-c2cnc3c(Nc4ccc(C(=O)N5CCC(NC(=O)[C@@H]6C[C@@H](O)CN6)CC5)c(Cl)c4)nccn23)c(C(F)(F)F)n1` [Example 143, (2S,4R)-N-[1-[2-chloro-4-[[3-[1-(cyanomethyl)-3-(trifluoromethyl)pyrazol-4-yl]imidazo[1,2-a]pyrazin-8-yl]amino]benzoyl]piperidin-4-yl]-4-hydroxypyrrolidine-2-carboxamide] belongs 0.555 µM. `N#CCn1cc(-c2cnc3c(Nc4ccc(C(=O)N5CCN(C(=O)N[C@@H]6CCNC6)CC5)c(Cl)c4)nccn23)c(C(F)(F)F)n1` [Example 288, 4-[2-chloro-4-[[3-[1-(cyanomethyl)-3-(trifluoromethyl)pyrazol-4-yl]imidazo[1,2-a]pyrazin-8-yl]amino]benzoyl]-N-[(3R)-pyrrolidin-3-yl]piperazine-1-carboxamide formate]: under setting [2], the 90% effect concentration (IC90) came to 0.233 µM. Consider `CCc1cc(Nc2nccn3c(-c4c[nH]nc4C(F)(F)F)cnc23)ccc1C(=O)N[C@H](C)CN` [Example 145, N-[(2R)-1-aminopropan-2-yl]-2-ethyl-4-[[3-[3-(trifluoromethyl)-1H-pyrazol-4-yl]imidazo[1,2-a]pyrazin-8-yl]amino]benzamide trifluoroacetate], for which the IC90 under setting [1] is 1.9 µM.

As for `N#CCn1cc(-c2cnc3c(Nc4ccc(C(=O)N5CCN(C(=O)[C@@H]6CCCN6)CC5)c(Cl)c4)nccn23)c(C(F)(F)F)n1` [Example 210, 2-[4-[8-[3-chloro-4-[4-[(2S)-pyrrolidine-2-carbonyl]piperazine-1-carbonyl]anilino]imidazo[1,2-a]pyrazin-3-yl]-3-(trifluoromethyl)pyrazol-1-yl]acetonitrile], under setting [1], the concentration for an effect of 90% (IC90) amounted to 0.174 µM. For `CCc1cc(Nc2nccn3c(-c4cn(CC(F)F)nc4C(F)(F)F)cnc23)ccc1C(=O)NCCOCCN` [Example 302, N-[2-(2-aminoethoxy)ethyl]-4-[[3-[1-(2,2-difluoroethyl)-3-(trifluoromethyl)pyrazol-4-yl]imidazo[1,2-a]pyrazin-8-yl]amino]-2-ethylbenzamide formate], under setting [2], the IC90 was 0.17 µM.

For `O=C(NC1CCC(NC(=O)[C@@H]2C[C@@H](O)CN2)CC1)c1ccc(Nc2nccn3c(-c4c[nH]nc4C(F)(F)F)cnc23)cc1Cl` (stereo partly drawn) [Example 374, (2S,4R)-N-[4-[[2-chloro-4-[[3-[3-(trifluoromethyl)-1H-pyrazol-4-yl]imidazo[1,2-a]pyrazin-8-yl]amino]benzoyl]amino]cyclohexyl]-4-hydroxypyrrolidine-2-carboxamide], under setting [1], the IC90 amounted to 0.237 µM. Turning to `Cc1ccc(Cn2cc(-c3cnc4c(Nc5ccc(C(=O)N6CCNCC6)c(Cl)c5)nccn34)c(C(F)(F)F)n2)nn1` [Example 163, [2-chloro-4-[[3-[1-[(6-methylpyridazin-3-yl)methyl]-3-(trifluoromethyl)pyrazol-4-yl]imidazo[1,2-a]pyrazin-8-yl]amino]phenyl]-piperazin-1-ylmethanone formate], the IC90 under setting [2] is 1.27 µM. As to `C=CCNCCCNC(=O)c1ccc(Nc2nccn3c(-c4c[nH]nc4C(F)(F)F)cnc23)cc1CC` [Example 196, 2-ethyl-N-[3-(prop-2-enylamino)propyl]-4-[[3-[3-(trifluoromethyl)-1H-pyrazol-4-yl]imidazo[1,2-a]pyrazin-8-yl]amino]benzamide], the IC90 under setting [1] was found to be 0.674 µM. Still for that read-out and setting: then `CCc1cc(Nc2nccn3c(-c4cn(CC(F)F)nc4C(F)(F)F)cnc23)ccc1C(=O)NCCOC[C@@H](C)N` [Example 151, N-[2-[(2R)-2-aminopropoxy]ethyl]-4-[[3-[1-(2,2-difluoroethyl)-3-(trifluoromethyl)pyrazol-4-yl]imidazo[1,2-a]pyrazin-8-yl]amino]-2-ethylbenzamide], with 0.204 µM. Turning to `O=C(c1ccc(Nc2nccn3c(-c4c[nH]nc4C(F)(F)F)cnc23)cc1Cl)N1CCN(C(=O)[C@@H]2CCNC[C@@H]2O)CC1` [Example 450, [2-chloro-4-[[3-[3-(trifluoromethyl)-1H-pyrazol-4-yl]imidazo[1,2-a]pyrazin-8-yl]amino]phenyl]-[4-[(3R,4R)-3-hydroxypiperidine-4-carbonyl]piperazin-1-yl]methanone formate], the concentration for an effect of 90% (IC90) under setting [2] was determined as 0.306 µM. On the same count and under the same terms, to `CCc1cc(Nc2nccn3c(-c4c[nH]nc4C(F)(F)F)cnc23)ccc1C(=O)NCCNC(=O)[C@@H](N)CCCCN` [Example 221, N-[2-[[(2S)-2,6-diaminohexanoyl]amino]ethyl]-2-ethyl-4-[[3-[3-(trifluoromethyl)-1H-pyrazol-4-yl]imidazo[1,2-a]pyrazin-8-yl]amino]benzamide formate] belongs 0.922 µM.
